Test [1] has as its system antibodies in sera from SARS patients (sera 1a, 1b, 2, 6, 37, 62, London, SARS-yellow, SARS-green). It is filed as binding, human. Details: Binding of serum 6 to linear peptides of protein X1 of SARS-CoV Urbani / Binding of serum 37 to linear peptides of protein X1 of SARS-CoV Urbani / Binding of serum 6 to looped/cyclic peptide (PEPSCAN-ELISA) / Binding of serum 37 to looped/cyclic peptide (PEPSCAN-ELISA) / Binding of serum 37 to looped/cyclic peptides of protein X1 of SARS-CoV Urbani / Binding of serum 6 to linear peptides of protein X2 / Binding of serum 37 to linear peptides of protein X2 / Binding of serum 37 to looped/cyclic peptides of protein X2 of SARS-CoV Urbani / Binding of serum 6 to linear peptides of protein M of SARS-CoV Urbani / Binding of serum 37 to linear peptides of protein M of SARS-CoV Urbani / Binding of serum 6 to looped/cyclic peptides of protein M of SARS-CoV Urbani / Binding of serum 37 to looped/cyclic peptides of protein M of SARS-CoV Urbani / Binding of serum 6 to linear peptides of protein X3 of SARS-CoV Urbani / Binding of serum 37 to linear peptides of protein X3 of SARS-CoV Urbani / Binding of serum 37 to looped/cyclic peptides of protein X3 of SARS-CoV Urbani / Binding of serum 6 to linear peptides of protein X4 of SARS-CoV Urbani / Binding of serum 37 to linear peptides of protein X4 of SARS-CoV Urbani / Binding of serum 37 to looped/cyclic peptides of protein X4 of SARS-CoV Urbani / Binding of serum 6 to linear peptides of protein X5 of SARS-CoV Urbani / Binding of serum 37 to linear peptides of protein X5 of SARS-CoV Urbani / Binding of serum 37 to looped/cyclic peptides of protein X5 of SARS-CoV Urbani / Binding of serum 6 to linear peptides of protein N of SARS-CoV Urbani / Binding of serum 37 to linear peptides of protein N of SARS-CoV Urbani / Binding of serum 6 to linear peptide (PEPSCAN-ELISA) / Binding of serum 1a to looped/cyclic peptides of protein N of SARS-CoV Urbani / Binding of serum 1b to looped/cyclic peptides of protein N of SARS-CoV Urbani / Binding of serum 2 to looped/cyclic peptides of protein N of SARS-CoV Urbani / Binding of serum 6 to looped/cyclic peptides of protein N of SARS-CoV Urbani / Binding of serum 37 to looped/cyclic peptides of protein N of SARS-CoV Urbani / Binding of serum 62 to looped/cyclic peptides of protein N of SARS-CoV Urbani / Binding of serum London to looped/cyclic peptides of protein N of SARS-CoV Urbani / Binding of serum SARS-green to looped/cyclic peptides of protein N of SARS-CoV Urbani: unit not given here.

The subject of test [2] is control sera (pooled serum of ten healthy LUMC hospital workers; commercial negative donor pooled serum from the Dutch bloodbank). It is filed as binding, human. More on the design: Binding of Control serum LUMC to linear peptides / Binding of Control serum Blood-bank to linear peptides / Binding of Control serum LUMC to looped peptides / Binding of Control Serum Blood-Bank to Looped peptides / Binding of Control serum LUMC to linear peptides of the protein M of SARS-CoV Urbani / Binding of Control serum Blood-bank to linear peptides of the protein M of SARS-CoV Urbani / Binding of Control serum LUMC to looped peptides of the protein M of SARS-CoV Urbani / Binding of Control Serum Blood-Bank to Looped peptides of the protein M of SARS-CoV Urbani: unit not given here.

Test [3] deals with rabbit serum obtained by immunizing a rabbit with the SARS-CoV strain Frankfurt 1. Format: binding. More on the design: Binding of a rabbit serum to linear peptides / Binding of a rabbit serum to looped peptides / Rabbit serum linear peptides / Rabbit serum looped peptides / Binding of a rabbit serum to linear peptides of protein N of SARS-CoV Urbani (Rabbit serum linear peptides) / Binding of a rabbit serum to looped/cyclic peptides of protein N of SARS-CoV Urbani (Rabbit serum looped peptides): unit not given here.

FLFLAWIMLLQFAYS: in test [1], the “Binding of serum 1a to linear peptides of protein M of SARS-CoV Urbani” value came to 0.7, the “Binding of serum 1a to looped/cyclic peptides of protein M of SARS-CoV Urbani” value is recorded as 0.8, the “Binding of serum 1b to linear peptides of protein M of SARS-CoV Urbani” value worked out at 0.6 and the “Binding of serum 1b to looped/cyclic peptides of protein M of SARS-CoV Urbani” value was found to be 0.7. For the same sequence, in test [1], the “Binding of serum 2 to linear peptides of protein M of SARS-CoV Urbani” value was determined as 0.4, the “Binding of serum 2 to looped/cyclic peptides of protein M of SARS-CoV Urbani” value was found to be 0.6, the “Binding of serum 6 to linear peptides of protein M of SARS-CoV Urbani” value came out at 0.4 and the “Binding of serum 6 to looped/cyclic peptides of protein M of SARS-CoV Urbani” value is reported as 0.9. Besides, in test [1], the “Binding of serum 37 to linear peptides of protein M of SARS-CoV Urbani” value worked out at 0.4, the “Binding of serum 37 to looped/cyclic peptides of protein M of SARS-CoV Urbani” value was 0.7, the “Binding of serum 62 to linear peptides of protein M of SARS-CoV Urbani” value is listed as 0.4 and the “Binding of serum 62 to looped/cyclic peptides of protein M of SARS-CoV Urbani” value is 0.8. For the same sequence, in test [1], the “Binding of serum London to linear peptides of protein M of SARS-CoV Urbani” value amounted to 0.3, the “Binding of serum London to looped/cyclic peptides of protein M of SARS-CoV Urbani” value is on record as 0.3, the “Binding of serum SARS-green to linear peptides of protein M of SARS-CoV Urbani” value stood at 0.4 and the “Binding of serum SARS-green to looped/cyclic peptides of protein M of SARS-CoV Urbani” value is on record as 0.3. For the same sequence, in test [1], the “Binding of serum SARS-yellow to linear peptides of protein M of SARS-CoV Urbani” value was 0.2 and the “Binding of serum SARS-yellow to looped/cyclic peptides of protein M of SARS-CoV Urbani” value was 0.4. In test [2], the “Binding of Control Serum Blood-Bank to Looped peptides of the protein M of SARS-CoV Urbani” value was found to be 0.8, the “Binding of Control serum Blood-bank to linear peptides of the protein M of SARS-CoV Urbani” value came to 0.5, the “Binding of Control serum LUMC to linear peptides of the protein M of SARS-CoV Urbani” value was 0.5 and the “Binding of Control serum LUMC to looped peptides of the protein M of SARS-CoV Urbani” value was determined as 0.7. Also, in test [3], the “Rabbit serum linear peptides” value came to 0.2 and the “Rabbit serum looped peptides” value amounted to 0.3.

With FLIVAALVFLILCFT, in test [1], the “Binding of serum 1a to linear peptides of protein X4 of SARS-CoV Urbani” value was 0.6, the “Binding of serum 1a to looped/cyclic peptides of protein X4 of SARS-CoV Urbani” value was 0.7, the “Binding of serum 1b to linear peptides of protein X4 of SARS-CoV Urbani” value was 0.5 and the “Binding of serum 1b to looped/cyclic peptides of protein X4 of SARS-CoV Urbani” value came out at 0.4. Moreover, in test [1], the “Binding of serum 2 to linear peptides of protein X4 of SARS-CoV Urbani” value is 0.4, the “Binding of serum 2 to looped/cyclic peptides of protein X4 of SARS-CoV Urbani” value is reported as 0.7, the “Binding of serum 6 to linear peptides of protein X4 of SARS-CoV Urbani” value was 0.5 and the “Binding of serum 6 to looped/cyclic peptides of protein X4 of SARS-CoV Urbani” value was 0.4. Also, in test [1], the “Binding of serum 37 to linear peptides of protein X4 of SARS-CoV Urbani” value came out at 0.7, the “Binding of serum 37 to looped/cyclic peptides of protein X4 of SARS-CoV Urbani” value was found to be 0.7, the “Binding of serum 62 to linear peptides of protein X4 of SARS-CoV Urbani” value was found to be 0.7 and the “Binding of serum 62 to looped/cyclic peptides of protein X4 of SARS-CoV Urbani” value worked out at 0.6. Also, in test [1], the “Binding of serum London to linear peptides of protein X4 of SARS-CoV Urbani” value is reported as 0.6, the “Binding of serum London to looped/cyclic peptides of protein X4 of SARS-CoV Urbani” value is 0.3, the “Binding of serum SARS-green to linear peptides of protein X4 of SARS-CoV Urbani” value is 0.5 and the “Binding of serum SARS-green to looped/cyclic peptides of protein X4 of SARS-CoV Urbani” value was determined as 0.5. Also, in test [1], the “Binding of serum SARS-yellow to linear peptides of protein X4 of SARS-CoV Urbani” value stood at 0.7 and the “Binding of serum SARS-yellow to looped/cyclic peptides of protein X4 of SARS-CoV Urbani” value was determined as 0.5. In addition, in test [2], the “Binding of Control Serum Blood-Bank to Looped peptides” value is 0.7, the “Binding of Control serum Blood-bank to linear peptides” value is recorded as 0.4, the “Binding of Control serum LUMC to linear peptides” value is on record as 0.4 and the “Binding of Control serum LUMC to looped peptides” value came out at 0.6. In addition, in test [3], the “Rabbit serum linear peptides” value was 0.4 and the “Rabbit serum looped peptides” value is on record as 0.3.

For the sequence FLTLIVFTSCELYHY, in test [1], the “Binding of serum 1a to linear peptides of protein X4 of SARS-CoV Urbani” value was 0.7, the “Binding of serum 1a to looped/cyclic peptides of protein X4 of SARS-CoV Urbani” value worked out at 0.8, the “Binding of serum 1b to linear peptides of protein X4 of SARS-CoV Urbani” value is recorded as 0.6 and the “Binding of serum 1b to looped/cyclic peptides of protein X4 of SARS-CoV Urbani” value came out at 1.7. In addition, in test [1], the “Binding of serum 2 to linear peptides of protein X4 of SARS-CoV Urbani” value turned out to be 0.5, the “Binding of serum 2 to looped/cyclic peptides of protein X4 of SARS-CoV Urbani” value was 0.8, the “Binding of serum 6 to linear peptides of protein X4 of SARS-CoV Urbani” value is given as 0.5 and the “Binding of serum 6 to looped/cyclic peptides of protein X4 of SARS-CoV Urbani” value is reported as 0.5. In test [1], the “Binding of serum 37 to linear peptides of protein X4 of SARS-CoV Urbani” value is recorded as 0.7, the “Binding of serum 37 to looped/cyclic peptides of protein X4 of SARS-CoV Urbani” value worked out at 0.7, the “Binding of serum 62 to linear peptides of protein X4 of SARS-CoV Urbani” value was 0.7 and the “Binding of serum 62 to looped/cyclic peptides of protein X4 of SARS-CoV Urbani” value is 0.7. For the same sequence, in test [1], the “Binding of serum London to linear peptides of protein X4 of SARS-CoV Urbani” value is reported as 0.6, the “Binding of serum London to looped/cyclic peptides of protein X4 of SARS-CoV Urbani” value is reported as 0.3, the “Binding of serum SARS-green to linear peptides of protein X4 of SARS-CoV Urbani” value stood at 0.6 and the “Binding of serum SARS-green to looped/cyclic peptides of protein X4 of SARS-CoV Urbani” value came to 0.3. Also, in test [1], the “Binding of serum SARS-yellow to linear peptides of protein X4 of SARS-CoV Urbani” value came to 0.6 and the “Binding of serum SARS-yellow to looped/cyclic peptides of protein X4 of SARS-CoV Urbani” value is 0.7. In test [2], the “Binding of Control Serum Blood-Bank to Looped peptides” value worked out at 0.6, the “Binding of Control serum Blood-bank to linear peptides” value was 0.6, the “Binding of Control serum LUMC to linear peptides” value was 0.7 and the “Binding of Control serum LUMC to looped peptides” value was determined as 0.7. Besides, in test [3], the “Rabbit serum linear peptides” value worked out at 0.4 and the “Rabbit serum looped peptides” value is recorded as 0.5.

On to FLWLLWPVTLACFVL, for which, in test [1], the “Binding of serum 1a to linear peptides of protein M of SARS-CoV Urbani” value worked out at 0.6, the “Binding of serum 1a to looped/cyclic peptides of protein M of SARS-CoV Urbani” value stood at 0.6, the “Binding of serum 1b to linear peptides of protein M of SARS-CoV Urbani” value is listed as 0.4 and the “Binding of serum 1b to looped/cyclic peptides of protein M of SARS-CoV Urbani” value was found to be 0.5. Moreover, in test [1], the “Binding of serum 2 to linear peptides of protein M of SARS-CoV Urbani” value came to 0.5, the “Binding of serum 2 to looped/cyclic peptides of protein M of SARS-CoV Urbani” value was determined as 0.6, the “Binding of serum 6 to linear peptides of protein M of SARS-CoV Urbani” value is on record as 0.3 and the “Binding of serum 6 to looped/cyclic peptides of protein M of SARS-CoV Urbani” value turned out to be 0.4. For the same sequence, in test [1], the “Binding of serum 37 to linear peptides of protein M of SARS-CoV Urbani” value came to 0.6, the “Binding of serum 37 to looped/cyclic peptides of protein M of SARS-CoV Urbani” value is listed as 0.6, the “Binding of serum 62 to linear peptides of protein M of SARS-CoV Urbani” value turned out to be 0.7 and the “Binding of serum 62 to looped/cyclic peptides of protein M of SARS-CoV Urbani” value is recorded as 0.6. Also, in test [1], the “Binding of serum London to linear peptides of protein M of SARS-CoV Urbani” value is on record as 0.4, the “Binding of serum London to looped/cyclic peptides of protein M of SARS-CoV Urbani” value turned out to be 0.2, the “Binding of serum SARS-green to linear peptides of protein M of SARS-CoV Urbani” value is listed as 0.2 and the “Binding of serum SARS-green to looped/cyclic peptides of protein M of SARS-CoV Urbani” value is on record as 0.2. In addition, in test [1], the “Binding of serum SARS-yellow to linear peptides of protein M of SARS-CoV Urbani” value was found to be 0.1 and the “Binding of serum SARS-yellow to looped/cyclic peptides of protein M of SARS-CoV Urbani” value worked out at 0.7. In test [2], the “Binding of Control Serum Blood-Bank to Looped peptides of the protein M of SARS-CoV Urbani” value came to 0.5, the “Binding of Control serum Blood-bank to linear peptides of the protein M of SARS-CoV Urbani” value stood at 0.4, the “Binding of Control serum LUMC to linear peptides of the protein M of SARS-CoV Urbani” value turned out to be 0.2 and the “Binding of Control serum LUMC to looped peptides of the protein M of SARS-CoV Urbani” value was 0.7. In test [3], the “Rabbit serum linear peptides” value is 0.3 and the “Rabbit serum looped peptides” value was 0.4.
